Source: PubChem BioAssay (NCI)
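Step 1: Grow cells in 96-well plates. Step 2: Expose to compound for 48 hours at 5 concentrations. Step 3: Interpolate endpoints linearly; if unreached, use highest concentration. Definition used: TGI = concentration required for complete inhibition of growth.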

Experiments:
Experiment in all cases: NCI tumour cell line growth inhibition, 48 h
[1] = system: SF-295 CNS
[2] = system: T-47D breast
[3] = system: DU-145 prostate
[4] = system: LOX IMVI melanoma
[5] = system: HCC-2998 colon
[6] = system: SW-620 colon
[7] = system: SNB-75 CNS
[8] = system: NCI-H226 lung
[9] = system: CAKI-1 renal
[10] = system: PC-3 prostate
[11] = system: NCI-H23 lung
[12] = system: BT-549 breast
[13] = system: UACC-62 melanoma
[14] = system: NCI/ADR-RES ovarian
[15] = system: CCRF-CEM leukemia
[16] = system: U251 CNS
[17] = system: NCI-H460 lung
[18] = system: A549 NSCLC

| SMILES | TGI [1] [µM] | TGI [2] [µM] | TGI [3] [µM] | TGI [4] [µM] | TGI [5] [µM] | TGI [6] [µM] | TGI [7] [µM] | TGI [8] [µM] | TGI [9] [µM] | TGI [10] [µM] | TGI [11] [µM] | TGI [12] [µM] | TGI [13] [µM] | TGI [14] [µM] | TGI [15] [µM] | TGI [16] [µM] | TGI [17] [µM] | TGI [18] [µM] |
| --- | --- | --- | --- | --- | --- | --- | --- | --- | --- | --- | --- | --- | --- | --- | --- | --- | --- | --- |
| CC(=O)Nc1ccc2c3c(cc(O)c2c1)N(C(=O)CCCCC(=O)N1CC(CCl)c2c1cc(O)c1cc(NC(C)=O)ccc21)CC3CCl (configuration not stated) | > 24.1 | 0.0973 | 0.209 | > 100 | 0.443 | > 100 | 0.297 | 0.763 | 18.1 | > 33.7 | 0.744 | 2.31 | 0.22 | > 100 |  |  |  |  |
| c1cc(-c2ccc(-c3nc4ccc(C5=NCCN5)cc4s3)s2)ccc1C1=NCCN1 | 0.249 | 1.42 | 0.677 |  | 0.162 | > 100 |  |  | 4.71 | 2.27 | > 100 | 5.27 |  | > 100 | 0.574 | 0.821 |  |  |
| Cn1c2c(c3ccccc31)CCN=C2C1CCCOC1=O (configuration not stated) |  | > 100 | > 100 | > 100 | > 100 | > 100 | > 100 | > 100 | > 100 | > 100 |  | > 100 | > 100 | > 100 |  | > 100 | > 100 | > 100 |
| COc1ccc(C2C(C#N)=C(S)N(C3OC(COC(C)=O)C(OC(C)=O)C(OC(C)=O)C3OC(C)=O)C(C)=C2C(C)=O)cc1 (configuration not stated) | > 100 | 83.1 | > 100 | > 100 | > 100 | > 100 | > 100 |  | > 100 | > 100 | > 100 | > 100 | > 100 | > 100 | > 100 | > 100 | > 100 | > 100 |
| O=C(O)Cc1ccc(Nc2nc3ccccc3nc2C(=O)O)cc1 | > 100 | > 100 | > 100 | > 100 |  | > 100 | > 100 | > 100 | > 100 | > 100 | > 100 | > 100 | > 100 | > 100 | > 100 | > 100 | > 100 | > 100 |
| O/N=C(/C(Cl)=C(Cl)Cl)C(Cl)Cl | 35.8 |  | 97.4 | 37.3 | 79.6 | 38.8 | 43.7 | > 100 | 87.3 | 33.9 | 30.7 | 41.4 | 77.2 | 73 | 36.7 | 35.2 | > 100 | > 100 |
| O=C1c2c(Br)sc(Br)c2[C@@H](Cl)[C@H]1Cl | 40.7 | 44.8 | 35.9 | 51 |  | > 100 | 34.1 | 36.4 | 38.8 | 38.9 | 94 | 39.3 | 34.6 | > 100 | 35.9 | 34.8 | 40.9 | 79.7 |
| O=c1[nH]nc(-c2ccccc2)n1/N=C/c1ccco1 | > 100 | > 100 | > 100 | > 100 |  | > 100 | > 100 |  | > 100 | > 100 | > 100 | 94.2 | > 100 | > 100 | > 100 | > 100 | > 100 | > 100 |
| Cc1ccc(S(=O)(=O)NC(=O)Nc2cccc(S(N)(=O)=O)c2)cc1 | > 100 | > 100 | > 100 | > 100 | > 100 | > 100 | > 100 | > 100 | > 100 | > 100 | > 100 |  | > 100 | > 100 |  | > 100 | > 100 | > 100 |
| COc1ccc2c(c1)CC1COc3cc(OC)ccc3C1O2 (configuration not stated) | > 100 | > 100 | > 100 | > 100 | > 100 | > 100 |  | > 100 | > 100 | > 100 | > 100 | > 100 | > 100 | > 100 | > 100 | > 100 |  | > 100 |
| COC(=O)c1cc(OS(=O)(=O)C(F)(F)F)c(=O)n2c1CCCC2 | > 100 | > 100 | > 100 | > 100 |  | > 100 | > 100 | > 100 | > 100 | > 100 | > 100 | > 100 | > 100 | > 100 | > 100 | > 100 |  | > 100 |
| CC(C)(C)c1cc2c(c(C(C)(C)C)c1O)CC(=O)O2 | 85.7 | 64.7 | > 100 | > 100 | 96.7 | > 100 |  | 74.7 |  | 76.1 | 59.3 |  | 77.5 | 54.7 | 73.5 | > 100 | > 100 | > 100 |
| Cc1cc(C)c2c(n1)S(=O)(=O)N(CCCN1CCN(c3cccc(Cl)c3)CC1)/C(=C(\O)c1ccccc1)C2=O | 95.9 | > 100 | > 100 | > 100 |  | > 100 |  |  | 62.2 | > 100 | 89.1 | > 100 | > 100 | > 100 | > 100 | > 100 | 52.5 | > 100 |
| C=C1CCCC(C)(C)[C@H]1C/C=C1\CCOC1=O | 30.8 | > 100 | 26.2 | 23.6 | > 100 | 35.2 |  | 24.9 | 30.2 | 31.5 | 39 | 26.9 | > 100 | 26.8 | > 100 | 30.4 | 24.4 | 26.6 |
| S=C=Nc1ccc(CSc2nc3ccccc3[nH]2)cc1 | 32.3 | 31.8 | 29.6 | 35.6 | 32.1 | 31.4 | 32 |  | 33.5 | 32 | 32.7 |  | 29.4 | 33 | 80.4 | 30.9 | 40.4 | 31 |
| Cc1csc(NNC(N)=O)n1 | > 100 |  | > 100 | > 100 | > 100 | > 100 | > 100 | > 100 | > 100 | > 100 | > 100 | > 100 | > 100 | > 100 | > 100 | > 100 | > 100 | > 100 |
| O=C1c2c(ccc3c2CCC3)CC1Cc1ccc2c(c1)CCC2 (configuration not stated) | 94.3 | 27 | > 100 | > 100 | > 100 | > 100 | 56 | > 100 |  |  | 85.9 | > 100 | 42.7 | > 100 | 37.8 | > 100 | > 100 | > 100 |
| O=C1CNC(=O)/C(=C/c2c[nH]c3ccccc23)N1 | > 100 | > 100 | > 100 | > 100 | > 100 | > 100 |  | > 100 | > 100 | > 100 | > 100 | > 100 | > 100 | > 100 |  |  | > 100 | > 100 |
| Cc1ccc(S(=O)(=O)N2CCCSCCSCCCN(S(=O)(=O)c3ccc(C)cc3)CC2)cc1 | > 100 | > 100 | > 100 |  | > 100 | > 100 | > 100 | > 100 |  |  | > 100 | > 100 | > 100 | > 100 |  | > 100 | > 100 | > 100 |
| O=C1CCC(=O)N1CNc1ccc2c(c1)S(=O)(=O)c1ccccc1O2 | > 100 | > 100 | > 100 | > 100 |  | > 100 |  | > 100 | > 100 | > 100 | > 100 | > 100 | > 100 | > 100 | > 100 | > 100 |  | > 100 |
| CCOC(=O)Nc1sc2c(c1C#N)CC(C)CC2 (configuration not stated) | > 100 | > 100 | > 100 | 54.5 | 11.2 | > 100 | 38.2 | 35.3 | > 100 | 41.8 | > 100 | > 100 | 96.4 | 7.86 |  | > 100 | 17.3 | 40 |
| c1csc(-c2nccc3c2[nH]c2ccccc23)c1 | 34.9 | 63.2 | 63.9 | 39.7 | 39.6 | 46.3 | 42.8 | 32 | 71.5 | 61.3 | 38.2 |  | 62.4 | 54.8 | 51.5 | 75.9 | 57 | 49.2 |
| COC(=O)C1CCC(=O)N1CN(C(C)=O)c1cc(OC)ccc1OC (configuration not stated) | > 100 | > 100 | > 100 | > 100 |  | > 100 | > 100 | > 100 | > 100 | > 100 | > 100 |  | > 100 | > 100 |  | > 100 | > 100 | > 100 |
| N#CCCN(CCC#N)c1ccc(C(N=Nc2ccc(Cl)cc2)=Nc2ccccc2)cc1 | 12 | 27.2 | 26.9 |  | 20.6 | 39.2 | 31.8 | 31.9 | 26.1 | 25.5 | 25.7 | 16.6 | 21.8 | 24.2 |  | 32.4 | 22.5 | 29.1 |
| O=C1c2c(O)cc(O)cc2C(C2OC(CO)C(O)C(O)C2O)c2cc(CO)cc(O)c21 (configuration not stated) | > 100 | > 100 | > 100 |  | > 100 | > 100 | 54.9 | > 100 |  | > 100 | > 100 | > 100 | > 100 | > 100 |  | > 100 | > 100 | > 100 |
| O=C1C2=Cc3ccccc3OC2(O)Oc2ccccc21 (configuration not stated) | > 100 | > 100 | > 100 | > 100 | > 100 | > 100 | > 100 | > 100 | > 100 | > 100 | > 100 |  | > 100 | > 100 | > 100 | > 100 |  | > 100 |
| CO/N=C(/C)c1cccc(Nc2nc3ccc(Cl)cc3c3[nH]c4ccccc4c23)c1 | 15.3 | 7.28 | 24.9 | 26 |  | 21.8 |  | 27.9 | 24.3 | 32.6 | 28.5 |  | 19.8 | 33 | > 100 | 29.1 | 18.8 | 30.2 |
| O=[N+]([O-])C1=Cc2cc(Cl)ccc2OC1c1cccc2ccccc12 (configuration not stated) | 6.19 | 2.81 | 4.7 | 0.983 | 2.25 | 0.459 | 1.95 | 4.42 | 1.22 | 2.23 | 5.46 | 1.01 | 4.97 | > 22.3 |  | 3.17 | 5.28 | 3.85 |
| C=C1[C@H]2O[C@H]2[C@@H](OC(C)=O)[C@@]2(C)[C@@H](OC(C)=O)C[C@@H](OC(=O)CCC)[C@@](C)(O)[C@@H]2[C@@H](OC(C)=O)[C@]2(O)[C@@H](C)C(=O)O[C@H]2[C@H]1Cl | > 100 | > 100 | > 100 |  | > 100 | > 100 | > 100 | 0.818 | > 100 | > 100 | > 100 | > 100 | > 100 | > 100 |  | > 100 | > 100 | > 100 |
